Laboratory results from paper PMC9599461, “Stereoselectivity in the Membrane Transport of Phenylethylamine Derivatives by Human Monoamine Transporters and Organic Cation Transporters 1, 2, and 3” (Biomolecules, 2022).

Tests used:
NET = NET (Homo sapiens, UniProt P23975); assay: Stereoselective uptake into NET-overexpressing HEK293 cells; details: for Clint ± SEM / Stereoselectivity Vmax / Stereoselectivity Km / Stereoselectivity ClInt: NET; for Clint ± SEM: quotient of vmax over Km; for Stereoselectivity Vmax / Stereoselectivity Km / Stereoselectivity ClInt: ratio between enantiomers; for Stereoselectivity Km: given as for (R) or for 1 (first-eluting); for Vmax ± SEM / Km: HEK293 cells overexpressing human NET, racemic substrate, two minutes; for Vmax ± SEM: net uptake; for Km: read-out: Km ± SEM, net uptake minus empty vector control
DAT = DAT (Homo sapiens, UniProt Q01959); assay: Stereoselective uptake into DAT-overexpressing HEK293 cells; details: for Clint ± SEM: quotient of vmax over Km; for Stereoselectivity Vmax / Stereoselectivity Km / Stereoselectivity ClInt: ratio between enantiomers; for Stereoselectivity Vmax: given as for (S) or for 2; for Stereoselectivity Km: given as for (S) or for 2 (second-eluting); for Stereoselectivity ClInt: printed as for (R) or for 1 (also 1.00-fold for (R/S)); for Vmax ± SEM / Km: HEK293 cells overexpressing human DAT, racemic substrate, two minutes; for Vmax ± SEM: net uptake; for Km: read-out: Km ± SEM, net uptake minus empty vector control
SERT = SERT (Homo sapiens, UniProt P31645); assay: Stereoselective uptake into SERT-overexpressing HEK293 cells; details: SERT; for Saturable net uptake: result in words
OCT1 = biological target: T1, OCT1 (Homo sapiens, UniProt O15245); assay: Stereoselective uptake into OCT1-overexpressing HEK293 cells; details: for Clint ± SEM / selectivity ratio at 2 min / Stereoselectivity Vmax / Stereoselectivity ClInt / Stereoselectivity Km: OCT1; for Clint ± SEM: quotient of vmax over Km; for selectivity ratio at 2 min: human; for selectivity ratio at 2 min / Stereoselectivity Vmax / Stereoselectivity ClInt / Stereoselectivity Km: ratio between enantiomers; for Vmax ± SEM / Km: HEK293 cells overexpressing human OCT1, racemic substrate, two minutes; for Vmax ± SEM: net uptake; for Stereoselectivity ClInt: given as for (R) or for 1 (also 1.00-fold for 1/2); for Km: read-out: Km ± SEM, net uptake minus empty vector control
T1 sequence (O15245 1-554): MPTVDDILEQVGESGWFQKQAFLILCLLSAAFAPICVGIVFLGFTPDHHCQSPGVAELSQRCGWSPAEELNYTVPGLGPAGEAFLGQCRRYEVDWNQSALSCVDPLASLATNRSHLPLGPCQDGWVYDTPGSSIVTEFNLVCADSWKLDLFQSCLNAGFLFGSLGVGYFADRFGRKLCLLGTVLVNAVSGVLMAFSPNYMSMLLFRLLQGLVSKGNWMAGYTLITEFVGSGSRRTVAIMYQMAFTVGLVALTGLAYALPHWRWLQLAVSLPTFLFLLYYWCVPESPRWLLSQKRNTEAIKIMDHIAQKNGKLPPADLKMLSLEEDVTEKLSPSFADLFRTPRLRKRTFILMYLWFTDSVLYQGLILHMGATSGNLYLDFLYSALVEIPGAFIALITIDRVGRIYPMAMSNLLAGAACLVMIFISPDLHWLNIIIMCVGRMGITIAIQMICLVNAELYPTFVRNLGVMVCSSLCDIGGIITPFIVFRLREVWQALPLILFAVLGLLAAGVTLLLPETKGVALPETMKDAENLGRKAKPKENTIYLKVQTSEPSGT
Procedure: (§1) All transport experiments were carried out in HEK293 cells stably overexpressing human MATs or OCTs. […] All cells were regularly cultivated in DMEM supplemented with 10% (v/v) FCS, penicillin (100 U/mL) and streptomycin (100 μg/mL)and kept in culture for no longer than 30 passages.
(§2) For the uptake experiments, 300,000 cells were plated in poly-D-lysine precoated 24-well plates 48 h ahead of the transport experiment. On the day of experiment, cells were initially washed once with 37 °C pre-warmed HBSS+ (Hanks buffered salt solution supplemented with 10 mM HEPES) and subsequently incubated with the substrates dissolved in pre-warmed HBSS+ for exactly two minutes. Incubation was stopped by adding ice-cold HBSS+ followed by two washing steps. After this, cells were lysed with 80% acetonitrile containing 10 ng/mL milnacipran as internal standard for high-performance liquid chromatography coupled to tandem mass spectrometry (HPLC-MS/MS) analysis. For every experiment, two additional wells per cell line were lysed using RIPA buffer for protein quantification. Total protein was quantified using the bicinchoninic acid assay [42]. This was later used for normalization of the uptake data.
Intracellularly accumulated test substances were quantified by HPLC-MS/MS analysis using a Shimadzu Nexera HPLC system with a SIL-30AC autosampler, a CTO-20AC column oven, a LC-30AD pump, and a CBM-20A controller (Shimadzu, Kyoto, Japan). Stereoselective chromatography was carried out on a [sequence] CBH HPLC column (100 × 3 mm inner dimension with 5 μM particle size; Sigma-Aldrich, Darmstadt, Germany) with a corresponding 10 × 3 mm guard column. Reversed phased chromatography was carried out using an ammonium acetate (NH4Ac) buffered aqueous mobile phase with isopropyl alcohol (IPA) as organic solvent. […] The order of elution of the enantiomers was obtained from available reference literature [43] or by applying enantiopure reference compounds to the chiral HPLC. […] Given the structural similarity of the investigated substances and the fact that separation was performed on the same column with almost identical mobile phases, we assume that this order of elution for our compound set is always the (R)- before the (S)-enantiomer.
(§3) Detection was performed with an API 4000 tandem mass spectrometer (AB SCIEX, Darmstadt, Germany) operating in multiple-reaction-monitoring mode. Quantification was performed using the Analyst 1.6.2 software (AB SCIEX, Darmstadt, Germany) and quantified by comparison to standard curves with known concentrations.
(§4) All uptake data were normalized to protein content to account for variation in the number of seeded sells. Transporter-mediated net uptake was calculated by subtracting uptake into empty vector-transfected control cells from uptake into transporter-transfected cells. Kinetic parameters were then determined after non-linear regression following the Michaelis–Menten equation (v = vmax × [S]/(Km + [S])) using GraphPad Prism (Version 5.01 for Windows, GraphPad Software, La Jolla, CA, USA). Vmax refers to the maximum transport velocity and Km is defined as the substance concentration required to reach half of vmax. The intrinsic clearance Clint was calculated as the quotient of vmax over Km.

OCT3 = biological target: T2, OCT3 (Homo sapiens, UniProt O75751); assay: Stereoselective uptake into OCT3-overexpressing HEK293 cells; details: for Clint ± SEM / Stereoselectivity Vmax / Stereoselectivity Km / Stereoselectivity ClInt: OCT3; for Clint ± SEM: quotient of vmax over Km; for Stereoselectivity Vmax / Stereoselectivity Km / Stereoselectivity ClInt: ratio between enantiomers; for Stereoselectivity Vmax: given as for (R) or for 1; for Stereoselectivity Km: given as for (R) or for 1 (first-eluting); for Vmax ± SEM / Km: HEK293 cells overexpressing human OCT3, racemic substrate, two minutes; for Vmax ± SEM: net uptake; for Km: read-out: Km ± SEM, net uptake minus empty vector control
T2 sequence (O75751 1-556): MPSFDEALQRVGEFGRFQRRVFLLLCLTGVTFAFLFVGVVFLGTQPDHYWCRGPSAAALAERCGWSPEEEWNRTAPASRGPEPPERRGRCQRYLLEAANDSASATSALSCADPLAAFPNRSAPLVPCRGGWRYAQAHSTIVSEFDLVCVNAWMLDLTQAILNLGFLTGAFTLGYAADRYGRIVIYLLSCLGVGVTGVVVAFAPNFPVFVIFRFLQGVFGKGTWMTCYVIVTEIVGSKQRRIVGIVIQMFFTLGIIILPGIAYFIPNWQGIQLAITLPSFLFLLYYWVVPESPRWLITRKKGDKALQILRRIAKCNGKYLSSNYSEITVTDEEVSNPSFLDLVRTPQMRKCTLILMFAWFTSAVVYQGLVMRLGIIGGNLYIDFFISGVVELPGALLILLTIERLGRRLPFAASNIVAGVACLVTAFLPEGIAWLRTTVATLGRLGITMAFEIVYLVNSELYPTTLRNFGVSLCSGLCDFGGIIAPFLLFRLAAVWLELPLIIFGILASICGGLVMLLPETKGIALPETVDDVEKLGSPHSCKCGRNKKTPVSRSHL

OCT2 = biological target: T3, OCT2 (Homo sapiens, UniProt O15244); assay: Stereoselective uptake into OCT2 (wild-type)-overexpressing HEK293 cells; details: for Clint ± SEM / selectivity ratio at 2 min: OCT2; for Clint ± SEM: quotient of vmax over Km; for selectivity ratio at 2 min: human, ratio between enantiomers; for Vmax ± SEM / Km: HEK293 cells overexpressing human OCT2, racemic substrate, two minutes; for Vmax ± SEM: net uptake; for Km: read-out: Km ± SEM, net uptake minus empty vector control
T3 sequence (O15244 1-555 S270A): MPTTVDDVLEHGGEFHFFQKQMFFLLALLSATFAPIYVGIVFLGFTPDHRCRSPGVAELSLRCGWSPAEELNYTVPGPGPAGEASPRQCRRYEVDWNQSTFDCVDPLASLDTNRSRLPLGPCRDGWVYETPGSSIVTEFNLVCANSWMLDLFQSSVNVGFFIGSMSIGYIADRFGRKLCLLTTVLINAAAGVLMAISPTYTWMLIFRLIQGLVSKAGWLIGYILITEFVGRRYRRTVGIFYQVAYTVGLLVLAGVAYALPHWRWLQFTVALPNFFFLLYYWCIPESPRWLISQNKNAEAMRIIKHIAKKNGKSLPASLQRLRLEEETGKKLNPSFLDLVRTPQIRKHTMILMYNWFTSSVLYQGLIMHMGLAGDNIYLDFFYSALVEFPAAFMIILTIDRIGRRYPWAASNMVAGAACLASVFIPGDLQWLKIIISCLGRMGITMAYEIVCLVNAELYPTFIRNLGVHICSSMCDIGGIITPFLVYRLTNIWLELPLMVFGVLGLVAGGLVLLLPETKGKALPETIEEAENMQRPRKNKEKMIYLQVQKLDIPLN
Procedure: as §1, §2
Intracellularly accumulated test substances were quantified by HPLC-MS/MS analysis using a Shimadzu Nexera HPLC system with a SIL-30AC autosampler, a CTO-20AC column oven, a LC-30AD pump, and a CBM-20A controller (Shimadzu, Kyoto, Japan). Stereoselective chromatography was carried out on a [sequence] CBH HPLC column (100 × 3 mm inner dimension with 5 μM particle size; Sigma-Aldrich, Darmstadt, Germany) with a corresponding 10 × 3 mm guard column. Reversed phased chromatography was carried out using an ammonium acetate (NH4Ac) buffered aqueous mobile phase with isopropyl alcohol (IPA) as organic solvent. […] The order of elution of the enantiomers was obtained from available reference literature [43] or by applying enantiopure reference compounds to the chiral HPLC. […] However, in every other case where the order of elution was available, the (R)-enantiomer eluted first. Given the structural similarity of the investigated substances and the fact that separation was performed on the same column with almost identical mobile phases, we assume that this order of elution for our compound set is always the (R)- before the (S)-enantiomer.
as §3, §4
HEK293 cells stably overexpressing wild-type or mutant OCT2 were incubated with 100 μM racemic substance for two minutes.

OCT2 A270S variant = assay: Stereoselective uptake into OCT2 A270S variant-overexpressing HEK293 cells; details: OCT2 wild-type versus A270S, 100 μM racemic substance, two minutes, given as for WT
[1] = ratio between enantiomers, given as for (S) or for 2
[2] = Stereoselectivity Km, given as for (R) or for 1 (first-eluting)
[3] = given as for (R) or for 1 (first-eluting)
[4] = given as for (R) or for 1 (also 1.00-fold for 1/2)

Sequence of SERT (P31645 whole entry): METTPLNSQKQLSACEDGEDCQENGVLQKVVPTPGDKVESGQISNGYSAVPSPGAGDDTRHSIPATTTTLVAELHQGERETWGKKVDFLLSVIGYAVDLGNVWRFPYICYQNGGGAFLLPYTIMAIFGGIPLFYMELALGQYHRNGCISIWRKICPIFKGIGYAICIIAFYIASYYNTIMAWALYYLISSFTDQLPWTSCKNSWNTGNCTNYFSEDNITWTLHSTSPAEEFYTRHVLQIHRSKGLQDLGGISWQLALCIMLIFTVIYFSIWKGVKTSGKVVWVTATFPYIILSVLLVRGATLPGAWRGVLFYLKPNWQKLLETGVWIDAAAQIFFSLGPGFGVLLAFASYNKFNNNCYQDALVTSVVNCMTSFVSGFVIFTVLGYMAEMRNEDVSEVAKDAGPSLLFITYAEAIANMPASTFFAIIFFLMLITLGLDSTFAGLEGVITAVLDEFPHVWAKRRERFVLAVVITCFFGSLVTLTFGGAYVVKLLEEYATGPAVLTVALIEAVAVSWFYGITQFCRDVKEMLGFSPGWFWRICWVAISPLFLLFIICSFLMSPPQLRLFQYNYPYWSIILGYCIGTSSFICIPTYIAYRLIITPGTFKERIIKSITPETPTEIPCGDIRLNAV
Sequence of NET (P23975 whole entry): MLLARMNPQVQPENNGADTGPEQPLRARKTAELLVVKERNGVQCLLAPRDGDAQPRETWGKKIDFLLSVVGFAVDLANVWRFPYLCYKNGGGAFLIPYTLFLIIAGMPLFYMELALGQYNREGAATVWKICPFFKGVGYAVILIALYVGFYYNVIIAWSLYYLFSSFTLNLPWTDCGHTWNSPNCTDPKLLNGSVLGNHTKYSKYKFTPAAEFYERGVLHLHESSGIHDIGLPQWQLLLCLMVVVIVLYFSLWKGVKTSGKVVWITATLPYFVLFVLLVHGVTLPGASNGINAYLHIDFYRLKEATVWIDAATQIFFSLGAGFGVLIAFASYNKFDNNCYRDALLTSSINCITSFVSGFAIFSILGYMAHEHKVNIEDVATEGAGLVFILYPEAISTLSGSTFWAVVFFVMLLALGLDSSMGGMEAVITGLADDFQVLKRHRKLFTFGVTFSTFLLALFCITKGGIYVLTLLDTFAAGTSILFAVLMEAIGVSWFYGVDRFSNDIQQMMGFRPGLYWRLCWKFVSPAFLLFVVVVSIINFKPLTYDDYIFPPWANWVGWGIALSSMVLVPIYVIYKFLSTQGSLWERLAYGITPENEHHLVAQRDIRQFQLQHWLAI
Sequence of DAT (Q01959 whole entry): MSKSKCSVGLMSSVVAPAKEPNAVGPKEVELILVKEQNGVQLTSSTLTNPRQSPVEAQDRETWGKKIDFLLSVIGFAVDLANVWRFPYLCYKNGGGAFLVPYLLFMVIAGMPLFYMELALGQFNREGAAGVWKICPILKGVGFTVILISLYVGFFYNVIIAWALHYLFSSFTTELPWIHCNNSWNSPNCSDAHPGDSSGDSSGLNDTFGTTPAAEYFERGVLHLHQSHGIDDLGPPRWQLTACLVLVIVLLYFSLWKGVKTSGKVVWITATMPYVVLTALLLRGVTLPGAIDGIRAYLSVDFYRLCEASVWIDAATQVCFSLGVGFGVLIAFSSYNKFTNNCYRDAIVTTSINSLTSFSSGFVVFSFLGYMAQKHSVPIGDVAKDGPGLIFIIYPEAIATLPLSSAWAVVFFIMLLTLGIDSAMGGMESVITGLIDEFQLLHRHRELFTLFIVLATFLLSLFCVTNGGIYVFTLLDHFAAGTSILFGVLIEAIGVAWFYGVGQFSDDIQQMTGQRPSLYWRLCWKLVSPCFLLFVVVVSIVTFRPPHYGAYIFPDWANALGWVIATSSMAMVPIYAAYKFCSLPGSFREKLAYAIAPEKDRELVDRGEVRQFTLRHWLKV

Row | Compound | Clint ± SEM (NET) | Stereoselectivity Km (NET) | Stereoselectivity ClInt (NET; given as for (S) or for 2) | Clint ± SEM (OCT1) | Clint ± SEM (OCT3) | Stereoselectivity Vmax (OCT3) | Stereoselectivity Km (OCT3) | Clint ± SEM (OCT2) | Vmax ± SEM (NET) | Stereoselectivity Vmax (NET; given as for (S) or for 2) | Km (NET) | Clint ± SEM (DAT; DAT) | Stereoselectivity Vmax (DAT; DAT) | Vmax ± SEM (DAT) | Km (DAT) | Vmax ± SEM (OCT1) | Km (OCT1) | Vmax ± SEM (OCT3) | Km (OCT3) | Vmax ± SEM (OCT2) | also measured
1 | COc1cc(C(O)CN)ccc1O (single isomer, unassigned) [Normetanephrine-2, Normetanephrine] | 3.47 mL × g Protein^−1 × min^−1 | 1.35 fold | 1.28 fold | 2.65 mL × g Protein^−1 × min^−1 | 21.6 mL × g Protein^−1 × min^−1 | 1.09 fold | 1.22 fold | 5.92 mL × g Protein^−1 × min^−1 | – | – | – | – | – | – | – | – | – | – | – | – | Stereoselectivity Vmax (NET; given as for (R) or for 1): 1.06 fold; Saturable net uptake (DAT; DAT, result in words): No saturable net uptake; Clint ± SEM (SERT; quotient of vmax over Km): 4.05 mL × g Protein^−1 × min^−1; Stereoselectivity Km (SERT; ratio between enantiomers, given as for (R) or for 1 (first-eluting)): 1.08 fold; Stereoselectivity ClInt (SERT; [1]): 1.28 fold; Stereoselectivity Vmax (SERT; [1]): 1.67 fold; selectivity ratio at 2 min (OCT1; Stereoselectivity ClInt, given as for (S) or for 2): 1.08; selectivity ratio at 2 min (OCT1; [2]): 1.59; selectivity ratio at 2 min (OCT1; Stereoselectivity Vmax, given as for (R) or for 1): 1.47; Stereoselectivity ClInt (OCT3; given as for (S) or for 2): 1.12 fold; selectivity ratio at 2 min (OCT2; Stereoselectivity ClInt, given as for (R) or for 1): 1.56; selectivity ratio at 2 min (OCT2; [2]): 1.32; selectivity ratio at 2 min (OCT2; Stereoselectivity Vmax, given as for (S) or for 2): 2.06; Transporter selectivity (OCT2 A270S variant; listed as (S)-Normetanephrine): 1.08 fold
2 | NC[C@H](O)c1ccccc1 [(R)-Bisnorephedrine] | 46.1 mL × g Protein^−1 × min^−1 | 1.01 fold | 1.24 fold | 1.17 mL × g Protein^−1 × min^−1 | 4.00 mL × g Protein^−1 × min^−1 | 1.13 fold | 1.08 fold | 22.6 mL × g Protein^−1 × min^−1 | 9.50 pmol × mg Protein^−1 × min^−1 | 1.23 fold | 0.206 µM | 6.21 mL × g Protein^−1 × min^−1 | 1.17 fold | 27.2 pmol × mg Protein^−1 × min^−1 | 4.38 µM | 218 pmol × mg Protein^−1 × min^−1 | 187 µM | 662 pmol × mg Protein^−1 × min^−1 | 165 µM | 847 pmol × mg Protein^−1 × min^−1 | Stereoselectivity Km (DAT; DAT): 1.18 fold; Stereoselectivity ClInt (DAT; DAT): 1.01 fold; Saturable net uptake (SERT): No saturable net uptake; Stereoselectivity Vmax (OCT1; given as for (R) or for 1): 1.19 fold; Stereoselectivity ClInt (OCT1): 1.03 fold; Stereoselectivity Km (OCT1; [3]): 1.15 fold; Stereoselectivity ClInt (OCT3; [4]): 1.04 fold; Transporter selectivity (OCT2 A270S variant): 1.50 fold
3 | CNC[C@@H](O)c1ccc(O)c(O)c1 [(S)-Epinephrine] | – | – | – | – | 11.7 ± 4.9 mL × g Protein^−1 × min^−1 | – | – | 6.83 ± 2.57 mL × g Protein^−1 × min^−1 | 557 ± 22 pmol × mg Protein^−1 × min^−1 | – | 8.52 ± 1.91 µM | 37.9 ± 14.8 mL × g Protein^−1 × min^−1 | – | 1226 ± 90 pmol × mg Protein^−1 × min^−1 | – | 2514 ± 266 pmol × mg Protein^−1 × min^−1 | 671 ± 230 µM | 5336 ± 502 pmol × mg Protein^−1 × min^−1 | 455 ± 149 µM | 3993 ± 360 pmol × mg Protein^−1 × min^−1 | Km (OCT2): 585 ± 167 µM
4 | NC[C@@H](O)c1ccccc1 [(S)-Bisnorephedrine] | 57.4 mL × g Protein^−1 × min^−1 | 1.01 fold | 1.24 fold | 1.13 mL × g Protein^−1 × min^−1 | 3.85 mL × g Protein^−1 × min^−1 | 1.13 fold | 1.08 fold | 10.0 mL × g Protein^−1 × min^−1 | 11.7 pmol × mg Protein^−1 × min^−1 | 1.23 fold | 0.204 µM | 6.15 mL × g Protein^−1 × min^−1 | 1.17 fold | 31.7 pmol × mg Protein^−1 × min^−1 | 5.16 µM | 184 pmol × mg Protein^−1 × min^−1 | 162 µM | 589 pmol × mg Protein^−1 × min^−1 | 153 µM | 602 pmol × mg Protein^−1 × min^−1 | Stereoselectivity Km (DAT; DAT): 1.18 fold; Stereoselectivity ClInt (DAT; DAT): 1.01 fold; Saturable net uptake (SERT): No saturable net uptake; Stereoselectivity Vmax (OCT1; given as for (R) or for 1): 1.19 fold; Stereoselectivity ClInt (OCT1): 1.03 fold; Stereoselectivity Km (OCT1; [3]): 1.15 fold; Stereoselectivity ClInt (OCT3; [4]): 1.04 fold; Transporter selectivity (OCT2 A270S variant): 1.24 fold
5 | (R)-Epinephrine | 91.7 ± 21.3 mL × g Protein^−1 × min^−1 | – | – | 4.06 ± 1.37 mL × g Protein^−1 × min^−1 | 20.9 ± 6.7 mL × g Protein^−1 × min^−1 | – | – | 14.2 ± 4.0 mL × g Protein^−1 × min^−1 | 1027 ± 37 pmol × mg Protein^−1 × min^−1 | – | 11.2 ± 2.2 µM | 64.7 ± 26.7 mL × g Protein^−1 × min^−1 | – | – | 34 ± 11.6 µM | 2419 ± 189 pmol × mg Protein^−1 × min^−1 | 596 ± 155 µM | 9742 ± 698 pmol × mg Protein^−1 × min^−1 | 466 ± 116 µM | 7277 ± 483 pmol × mg Protein^−1 × min^−1 | Km (OCT2): 513 ± 110 µM
